Test results as given in US20230158057A1, “COMPOSITIONS AND METHODS FOR THE TREATMENT OF PAIN” (Duke University, priority 2020, published 2023).

Legend:
[1] = system: outer lamina II (IIo) spinal cord interneurons; experiment: Whole-cell patch-clamp recording in mouse spinal cord slices; format: cell-based; conditions: slice incubation
Method: Whole-cell patch-clamp recording in mouse spinal cord slices: 4 to 6-week-old mice were anesthetized with urethane (1.5-2.0 g/kg, i.p.). […] After extraction of the spinal cord under anesthesia, animals were rapidly euthanized via decapitation. Transverse spinal slices (300 to 400 μm) were prepared using a vibrating microtome (VT1200S Leica). The slices were incubated at 32° C. for at least 30 min in ACSF equilibrated with 95% O2 and 5% CO2. The slices were placed in a recording chamber and completely submerged and perfused at a flow rate of 2 to 4 ml/min with ACSF saturated with 95% O2 and 5% CO2 at room temperature. Lamina II neurons in lumbar segments were identified as a translucent band under a microscope (BX51WIF; Olympus) with light transmitted from below. Whole-cell voltage-clamp recordings were made from outer lamina II neurons using patch pipettes. The patch pipette solution used to record sEPSCs contained 135 mM K-gluconate, 5 mM KCl, 0.5 mM CaCl2, 2 mM MgCl2, 5 mM EGTA, 5 mM HEPES, and 5 mM Mg-ATP (pH 7.3 adjusted with KOH). […] Signals were acquired using an […] amplifier. The data were stored and analyzed with a PC using pCLAMP 10.3 software.

[2] = system: osteoclasts and osteoblasts in tumor-bearing distal femora; experiment: TRAP and ALP staining on mouse femurs; format: in vivo
Method: Bone histology, TRAP, and ALP staining on mouse femurs. Mice were deeply anesthetized and perfused intracardially with 4% paraformaldehyde (PFA) in 0.1M phosphate buffered saline. The femora were removed and then post-fixed for 48 h in the same fixative at 4° C. After demineralization in EDTA (10%) for 10 days, femur samples were dehydrated in an ascending gradient of ethanol (30-100%) followed by paraffin embedding. Serial sections for trabecular bone were obtained from the distal femur at a thickness of 5 μm followed by tartrate-resistant acid phosphatase (TRAP) staining or alkaline phosphatase (ALP) staining using TRAP kits (Fast Red TR/Naphthol AS-MX, Sigma, St. Louis, Mo.) and NBT/BCIP (Thermo Scientific), respectively. Bone static histomorphometric analyses for […] and osteoblast number (osteoblast number per trabecular bone surface, Ob.N/BS) were conducted using Image J (NIH) based on images taken by a Leica Q500MC microscope. Osteoclasts, osteoblasts and trabecular bone at the metaphysis of the femur (1500 μm proximal to the distal growth plate) were quantified, since bone destruction in this model mainly occurs in this area. Three sections per animal were randomly chosen and used for quantification.

Nc1ncnc2c1ncn2[C@@H]1O[C@@H]2COP(=O)([S-])O[C@@H]3[C@H](O)[C@@H](COP([O-])(=S)O[C@H]2[C@H]1O)O[C@H]3n1cnc2c(N)ncnc21.[Na+].[Na+] (stereo partly drawn) [ADU-S100, (2′-5′)-[P(R)]-5′-O-[(R)-hydroxymercaptophosphinyl]-P-thioadenylyl-adenosine cyclic dinucleotide]
frequency and amplitude of spontaneous EPSCs (sEPSCs) [1]: decreased both the frequency and amplitude of spontaneous EPSCs

Cc1ccc2c(=O)c3cccc(CC(=O)O)c3oc2c1C [DMXAA, 2-(5,6-dimethyl-9-oxo-9H-xanthen-4-yl)acetic acid]
osteoblasts ([2]; d11): no changes were observed in bone-forming osteoblasts | osteoclast numbers ([2]; d11, 2×20 mg/kg i.p.): far significantly fewer osteoclasts
